The compounds below were run on HCV replicon (assay: Replicon based assay of HCV replication inhibition (NPT ELISA)). Details: Hepatitis C virus, Huh-7, 72 h, Table III; Huh-7 HCV replicon-containing cells, three days; read-out: Activity.
Assay type: cell-based, Hepatitis C virus
Outline: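 Huh-7 cells carrying a bicistronic HCV replicon (neo, EMCV-IRES-driven NS3–NS5B) treated overnight after seeding with usually 6 concentrations, 10 to 0.03 micromolar, for three days at 37° C without G418. Replication read as NPT level by captured ELISA; matched-DMSO wells and interferon alpha as controls.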

CCCCCCCCOc1ccc(Nc2nc(-c3cncnc3-c3ccccc3)cs2)cc1C(F)(F)F [compound 702, N-(3-(trifluoromethyl)-4-(octyloxy)phenyl)-4-(4-phenylpyrimidin-5-yl)thiazol-2-amine] and CCCCCCCCOc1ccc(Nc2nc(-c3cccc4cccnc34)cs2)cc1C(F)(F)F [compound 708, N-(3-(trifluoromethyl)-4-(octyloxy)phenyl)-4-(quinolin-8-yl)thiazol-2-amine] cannot be ordered by EC50: < 1000 nM for the first, < 1000 nM for the second.

CCCCCCCCOc1ccc(Nc2nc(-c3ccc(C#N)o3)cs2)cc1C(F)(F)F [compound 703, 5-(2-(3-(trifluoromethyl)-4-(octyloxy)phenylamino)thiazol-4-yl)furan-2-carbonitrile] and CCCCCCCCOc1ccc(Nc2nc(-c3ccsc3)cs2)cc1C(F)(F)F [compound 714, N-(3-(trifluoromethyl)-4-(octyloxy)phenyl)-4-(thiophen-3-yl)thiazol-2-amine] cannot be ordered by EC50: < 1000 nM for the first, < 1000 nM for the second.

CCCCCCCCOc1ccc(Nc2nc(-c3ccc4oc(CO)cc4c3)cs2)cc1C(F)(F)F [compound 704, (5-(2-(3-(trifluoromethyl)-4-(octyloxy)phenylamino)thiazol-4-yl)benzofuran-2-yl)methanol] and CCCCCCCCOc1ccc(Nc2nc(-c3ccc4cc(OC)ccc4c3)cs2)cc1C(F)(F)F [compound 707, N-(3-(trifluoromethyl)-4-(octyloxy)phenyl)-4-(2-methoxynaphthalen-6-yl)thiazol-2-amine] cannot be ordered by EC50: < 1000 nM for the first, < 1000 nM for the second.

CCCCCCCCOc1ccc(Nc2nc(-c3cccc(OC)n3)cs2)cc1C(F)(F)F [compound 705, N-(3-(trifluoromethyl)-4-(octyloxy)phenyl)-4-(6-methoxypyridin-2-yl)thiazol-2-amine] and CCCCCCCCOc1ccc(Nc2nc(-c3ncccc3O)cs2)cc1C(F)(F)F [compound 710, 2-(2-(3-(trifluoromethyl)-4-(octyloxy)phenylamino)thiazol-4-yl)pyridin-3-ol] cannot be ordered by EC50: < 1000 nM for the first, < 1000 nM for the second.

CCCCCCCCOc1ccc(Nc2nc(-c3ccc4c(c3)OCO4)cs2)cc1C(F)(F)F [compound 706, 4-(benzo[d][1,3]dioxol-5-yl)-N-(3-(trifluoromethyl)-4-(octyloxy)phenyl)thiazol-2-amine] and CCCCCCCCOc1ccc(Nc2nc(-c3cccc(S(N)(=O)=O)c3)cs2)cc1C(F)(F)F [compound 711] cannot be ordered by EC50: < 1000 nM for the first, < 1000 nM for the second.

CCCCCCCCOc1ccc(Nc2nc(-c3ccc(C(F)(F)F)cn3)cs2)cc1C(F)(F)F [compound 709, N-(3-(trifluoromethyl)-4-(octyloxy)phenyl)-4-(5-(trifluoromethyl)pyridin-2-yl)thiazol-2-amine] and CCCCCCCCOc1ccc(Nc2nc(-c3cccc(C(F)(F)F)c3)cs2)cc1C(F)(F)F [compound 715, N-(3-(trifluoromethyl)-4-(octyloxy)phenyl)-4-(3-(tnfluoromethyl)phenyl)thiazol-2-amine] cannot be ordered by EC50: < 1000 nM for the first, < 1000 nM for the second.

CCCCCCCCOc1ccc(Nc2nc(-c3ccc(S(N)(=O)=O)cc3)cs2)cc1C(F)(F)F [compound 712] and CCCCCCCCOc1ccc(Nc2nc(-c3cnc(OC)nc3OC)cs2)cc1C(F)(F)F [compound 713, N-(3-(trifluoromethyl)-4-(octyloxy)phenyl)-4-(2,4-dimethoxypyrimidin-5-yl)thiazol-2-amine] cannot be ordered by EC50: < 1000 nM for the first, < 1000 nM for the second.

CCCCCCCc1nc2cc(Nc3nc(-c4cccnc4)cs3)ccc2o1 [compound 716, 2-heptyl-N-(4-(pyridin-3-yl)thiazol-2-yl)benzo[d]oxazol-5-amine] and CCCCCCCc1nc2cc(Nc3nc(-c4cnc(OC)nc4)cs3)ccc2o1 [compound 717, 2-heptyl-N-(4-(2-methoxypyrimidin-5-yl)thiazol-2-yl)benzo[d]oxazol-5-amine] cannot be ordered by EC50: < 1000 nM for the first, < 1000 nM for the second.

O=C1OCc2cc(-c3csc(Nc4ccc(OCC5CCCCC5)c(F)c4)n3)ccc21 [compound 718, 5-(2-(4-(cyclohexylmethoxy)-3-fluorophenylamino)thiazol-4-yl)isobenzofuran-1(3H)-one] gave an EC50 of 1000 to 10000 nM.

— patent publication US8088806B2 (Achillion Pharmaceuticals, Inc., priority 2005, dated 2012)
